Data from patent US11974551B2, “L-serine compositions, methods and uses for treating neurodegenerative diseases and disorders” (priority 2011, dated 2024).
Entries after “also recorded” stand apart in the source; their conditions may differ.

Legend:
MRC-5 cells [1] = assay: Lactate dehydrogenase (LDH) release assay; type: cell-based, human; settings: BMAA-treated cells
Method: (§1) Lactate dehydrogenase release from cells was determined as described previously (Tang, et al., Phytother Res 25, 417-423 (2010)).

SH-SY5Y cells [2] = assay: Lactate dehydrogenase (LDH) release assay; type: cell-based, human; settings: BMAA-treated cells
Method: as §1

zebrafish [3] = assay: Zebrafish swimming performance (critical swimming speed, time to fail); type: in vivo, zebrafish (Dario rerio); settings: single yolk injection of BMAA, fish reared 3 months, compared to control fish, p<0.001
Method: (§2) BMAA was directly injected through the chorion into the yolk, allowing it to directly compete with L-serine for incorporation into newly synthesized proteins in the developing fish. BMAA (100 mg/ml in water) or water were delivered by an automated Picospritzer pump set to deliver 5 nL per injection into the yolk ([…]) of zebrafish immediately after being fertilized. Fish were left to develop for 30 hours in standard conditions.
(§3) Surviving fish were reared in an aquarium equipped with biological filtration and temp control set at 28° C. for 3 months. BMAA-treated and control fish from the same parents were reared in the same tanks, then separated based on fluorescent tag prior to swimming assessment. After 3 months all healthy adult fish with no deformations or abnormalities were examined. Critical swimming speed was determined, defined as the maximum swimming velocity that can be sustained for a set period in a water tunnel. Water was pumped from a reservoir (EcoTech Marine MP10 VorTech® Propeller Pump with EcoSmart Driver) through 50 mm diameter tubing. […] The difference in total motor neuron length was quantitated by measuring the first ten motor neuron projections marked before the end of the yolk extension (Paquet D. et al., J. Clin. Invest. 119:1382 (2009)). […] Data was collated in GraphPad Prism (version 6 for OSX) and statistical significance calculated using a Student's T-test. […]

MRC-5 cells [4] = assay: Autofluorescence imaging of cells; type: cell-based, human; settings: BMAA 300 μM, 96 hours
Method: MRC-5 cells were incubated in DMEM supplemented with 300 μM BMAA in the presence or absence of 300 μM L-serine for 96 hours with daily medium changes. Cellular autofluorescence was visualized using an inverted fluorescent microscope (Olympus IX71) as described previously (Dunlop, et al., Biochem J 410, 131-140 (2008)).

Drosophila fruit flies = assay: Fruit fly feeding: mortality after three days; type: in vivo, Drosophila melanogaster; settings: media with 25 mM BMAA, after three days
Method: Preliminary studies show the ability of L-Serine to prevent misincorporation of BMAA into proteins. In a series of feeding experiments, Drosophila fruit flies were fed four different types of media: 1) standard fruit fly media with 0 mM BMAA (control), 2) media enriched with 25 mM L-Serine, 3) media with 25 mM BMAA added, and 4) media with both 25 mM BMAA and 25 mM L-Serine added for three days of feeding. Misincorporation of BMAA into proteins was then analyzed using triple quadrupole LC/MS/MS and Orbital Trap LC/MS/MS.
Equally interesting is the analysis of the protective value of L-Serine on Drosophila dosed with BMAA. Fruit flies fed with BMAA enriched media (third set of blocks) suffered a 40% mortality after three days, while flies fed with Serine plus BMAA (fourth set of blocks) had no mortality (FIG. 8). These flies were rescued by L-Serine.

SH-SY5Y cells [5] = assay: Annexin V binding (apoptosis) by flow cytometry; type: cell-based, human
Method: Late-stage apoptosis or necrosis was measured by simultaneous staining with propidium iodide and Annexin V using the BD Pharmingen™ Annexin V—FITC apoptosis detection kit and flow cytometry performed as described previously (Dunlop, et al., Biochem J 435, 207-216 (2010)).

[6] = Radio-labeled BMAA brain entry and insertion into neuroproteins; type: in vivo; settings: tritiated and 14C-labeled BMAA, rats
Excerpt: Studies testing to determine if L-Serine blocks the misincorporation of radio-tagged BMAA into rodent brains are undertaken.

MRC-5 cells [7] = assay: Acridine orange/ethidium bromide dual-staining of cells; type: cell-based, human; settings: 500 μM BMAA, 23 hours
Method: MRC-5 cells were incubated in the presence and absence of 500 μM BMAA for 23 hours. After removing the medium, the cells were rinsed once with warm PBS and incubated in a solution of AO/EB then visualized using fluorescent microscopy as described previously (Tang, et al., Phytother Res 25, 417-423 (2010)).

zebrafish [8] = assay: Zebrafish egg yolk injection: survival; type: in vivo, zebrafish (Dario rerio); settings: BMAA 100 mg/ml in water, 5 nL injected into yolk after fertilization, 30 hours; control 91%
Method: as §2

zebrafish [9] = assay: Zebrafish motor neuron development (fluorescent microscopy); type: in vivo, zebrafish (Dario rerio); settings: eggs injected with L-BMAA, 30 hours; motor neuron length vs control P<0.0001
Method: as §2, §3

MRC-5 cells [10] = assay: Incorporation of 3H-BMAA radiolabel into cell proteins (TCA precipitation, liquid scintillation counting); type: cell-based, human; settings: 16 hours
Method: MRC-5 cells were incubated with ^3H-BMAA (31.25 nM) in HBSS containing 10% FCS. After 2, 4, and 16 hours, cells were washed three times in phosphate buffered saline and lysed by freeze-thawing in Triton X-100. The protein concentration in the lysate was determined using the bicinchoninic acid assay (BCA) (Smith, et al., Anal Biochem 150, 76-85 (1985)) (and radiolabel in the cell lysate quantified by liquid scintillation counting (LSC). Cell proteins were then isolated by trichloroacetic acid (TCA) (5%) precipitation washed three times in TCA (5%) and dissolved in formic acid.
(§4) To determine if incorporation of radiolabel into proteins was protein synthesis dependent MRC-5, SH-SY5Y and HUVEC cells were incubated with ^3H-BMAA (31.25 nM) with or without CHX 2 μg/ml for 16 hours. The amount of radiolabel present in cell proteins in the CHM-treated cultures was expressed relative to that of control cultures, which was set at 100%. Parallel cultures of MRC-5 cells were incubated with ^3H-leucine (41 nM) with or without CHX 2 μg/ml under identical culture conditions and processed as before.
To examine the ability of individual amino acids to reduce incorporation or radiolabel into proteins, MRC-5 cells were incubated with ^3H-BMAA (31.25 nM) for 16 hours in the presence of individual amino acids (250 μM) and the radiolabel present in the cell proteins assessed as before. All of the 20 protein amino acids (L-isomers) were examined individually in triplicate cell cultures. […] Incorporation of radiolabel was determined relative to cells incubated in medium containing no serine. MRC-5 cells were then incubated with ^3H-BMAA (31.25 nM) for 16 hours in HBSS alone, HBSS containing all 20 protein amino acids (400 μM) or 19 protein amino acids except L-serine and the amount of radiolabel in cell protein assessed as before.

[11] = mice, single injection (Karlsson et al. 2009); cited from earlier work
MRC-5 cells [12] = assay: Protein-bound non-labeled BMAA in hydrolysed cell proteins by triple quadrupole LC/MS/MS; type: cell-based, human; settings: BMAA 250-1000 μM with L-serine 250-1000 μM, or CHX
Method: After incubation with ^3H-BMAA or cold BMAA, cells were washed three times with PBS, lysed by freeze thawing in Triton-X-100 (0.1%) and cell proteins precipitated in TCA (5%). Protein pellets were washed three times with TCA (5%) and hydrolysed in boiling 6 M HCl at 110° C. for 16 hours as previously described (Mondo, et al., Mar Drugs 10, 509-520 (2012)). Protein pellets were freeze-dried and reconstituted in 20 mM HCl. Particulates were removed by centrifugation through […] membranes and the hydrolysate derivatized in AccQ·Tag (Waters Corporation, Australia). Amino acids were separated on a Waters C-18 column using a method and gradient as described previously (Mondo, et al., Mar Drugs 10, 509-520 (2012)). For recovery of radiolabel in hydrolysed samples, fractions were collected manually every minute for 40 minutes, diluted into 5 ml scintillant (Ultima Gold™ scintillant, Perkin Elmer) and disintegrations per minute (DPM) determined by LSC.
To further confirm that BMAA was present in cell proteins and incorporation was inhibited by L-serine, MRC-5 cells were incubated with a range of concentrations of BMAA (250-1000 μM) or BMAA with L-serine (250-1000 μM) and hydrolysed cell proteins were analyzed by tandem mass spectroscopy on a triple quadrupole LC/MS/MS. […]

SH-SY5Y cells [13] = assay: Incorporation of 3H-BMAA radiolabel into cell proteins with or without CHX; type: cell-based, human; settings: 3H-BMAA 31.25 nM, CHX 2 μg/ml, 16 hours
Method: (§5) MRC-5 cells, a human lung fibroblast cell line (passage number 14-19), and SH-SY5Y cells, a human neuroblastoma cell-line (passage number 30-32), were maintained in DMEM, or DMEM/Hams F12 respectively containing 10% fetal bovine serum (FBS), 4 mM L-glutamine, 100 U/mL penicillin, and 100 μg/mL streptomycin at 37° C. in a humidified atmosphere of 5% CO2 and 95% air. Human umbilical vein endothelial cells (HUVEC) were harvested enzymatically with type II collagenase (Sigma-Aldrich) under sterile conditions as described by Minter (Minter, et al., Thromb Haemost 67, 718-723 (1992)) and established as primary cell cultures in M199 (Trace Biosciences, Sydney, Australia) containing 20% FBS, 4 mM L-glutamine, 0.5% endothelial cell growth promoter, 100 U/mL penicillin, and 100 μg/mL streptomycin. All media were prepared with endotoxin-free water (Baxter) and filtered with Zetapor filters (Cuno Life Sciences Division). Cells were seeded at 3×10^5 cells per well in 6 well plates and allowed to adhere overnight (16 hours) before treatment.
as §4, with “Parallel cultures of MRC-5 cells were incubated with ^3H-leucine (41 nM) with or without CHX 2 μg/ml under identical culture conditions and processed as before.” left out

HUVEC = assay: as above; type: cell-based, human; settings: 3H-BMAA 31.25 nM, CHX 2 μg/ml, 16 hours
Method: as §5
as §4, with “Parallel cultures of MRC-5 cells were incubated with ^3H-leucine (41 nM) with or without CHX 2 μg/ml under identical culture conditions and processed as before.” left out

CNC[C@H](N)C(=O)O [BMAA, β-methylamino-L-alanine]
necrosis, LDH release (MRC-5 cells [1]): no significant changes
necrosis, LDH release (SH-SY5Y cells [2]): no significant changes
swimming performance, time to fail (zebrafish [3]): significant impairment; also recorded: impairs zebrafish swimming performance
formation of autofluorescent bodies (MRC-5 cells [4]): autofluorescent bodies were evident; also recorded: Autofluorescence was observed
mortality (Drosophila fruit flies): 40%
Annexin V staining (apoptosis) (SH-SY5Y cells [5]; 500 μM BMAA alone): increased staining; also recorded: significant increase
crossing of the blood-brain barrier [6]: rapidly cross the blood-brain barrier
insertion into neuroproteins [6]: inserted into neuroproteins
morphological changes and pale cells indicative of apoptosis (MRC-5 cells [7]): increased number; also recorded: morphological changes
zebrafish viability (survival) (zebrafish [8]): 74%
motor neuron development (zebrafish [9]): truncated neurons

N[C@H](CO)C(=O)O [D-Serine, D-serine]
effect on incorporation of 3H-BMAA into protein (MRC-5 cells [10]; 3H-BMAA 31.25 nM, 250 μM D-serine): did not prevent incorporation

CNC[C@H](N)C(=O)O [^3H-BMAA]
tissue distribution pattern [11]: a distribution pattern similar to that of a protein-forming amino acid

C[C@@H]1C[C@@H]([C@H](O)CC2CC(=O)NC(=O)C2)C(=O)[C@@H](C)C1 [CHX, cycloheximide]
effect on incorporation of non-labeled BMAA into cell proteins (MRC-5 cells [12]): inhibited
effect on protein association of 3H-BMAA (SH-SY5Y cells [13]): inhibited
effect on protein association of 3H-BMAA (HUVEC): inhibited
effect on BMAA-induced Annexin V binding / apoptosis (SH-SY5Y cells [5]; 500 μM BMAA, co-incubation with CHX 2 μg/mL or L-serine 50 μM): abrogated; also recorded: significantly reduced
effect on amount of 3H-BMAA radiolabel in the protein fraction (MRC-5 cells [10]; 3H-BMAA 31.25 nM, CHX 2 μg/ml, relative to no CHX): significantly reduced; also recorded: inhibition of incorporation of radiolabel into cell protein
inhibition of incorporation of 3H-leucine into proteins, compared with 3H-BMAA (MRC-5 cells [10]; 3H-leucine 41 nM, CHX 2 μg/ml): to the same extent
